The source of these data is patent US20220273683A1, “BORON-CONTAINING SMALL MOLECULES” (Bill & Melinda Gates Foundation, priority 2016, published 2022).

Common to all, as to assay type: cell-based
Test [1] relates to Staphylococcus aureus, MRSA (ATCC 33591). Briefly: Antibacterial MIC assay (microbroth dilution, CLSI). The note with it: 35° C., 16-20 hours; for MIC: Staphylococcus aureus. A digest of the protocol: (§1)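 Microbroth dilution per CLSI M07-A10/M100-S25 in cation-adjusted Mueller-Hinton broth, with 3% lysed horse blood added for S. pneumoniae. Inoculum from a 0.5 McFarland direct colony suspension, diluted to 5×10^5 CFU/mL in the well. Compounds were 2-fold serially diluted; MIC read against a growth control.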
For orientation: In broth dilution the organism is exposed to a series of concentrations in liquid medium.

In test [2] the test system is Streptococcus pneumoniae (ATCC 49619). The test is described as above. The note with it: 35° C., 16-20 hours; for MIC: Streptococcus pneumoniae, ATCC49619, 3% lysed horse blood; for MIC Streptococcus pneumoniae (ATCC 49619): 3% lysed horse blood. The procedure, abridged:
as §1

In test [3] the test system is Wolbachia pipientis in C6/36 cell line. Briefly: Anti-Wolbachia high-content assay. The note with it: C6/36 (wAlbB) cells, 7 days at 26° C., 50% reduction of Wolbachia. The text has this:
C6/36 cells (ECACC #89051705, derived from Aedes albopictus larvae) were infected with Wolbachia pipientis derived from the supernatant of cultured A. albopictus Aa23 cells to create a stably Wolbachia-infected cell line C6/36 (wAlbB). This cell line was subpassaged 6-8 days prior to plating out at a density of 2000 viable cells per well in a 384-well CellCarrier plate suspended in Liebovitz media supplemented with 20% fetal bovine serum, 2% tryptose phosphate broth and 1% non-essential amino acids. Compounds were dissolved and diluted in DMSO, and compound solution was added to each well to provide a final DMSO concentration <1% and a total volume of 100 μL per well. Following 7 days of sterile incubation at 26° C., staining media containing SYTO 11 DNA dye was added to each well. After 15 minutes, all media was removed from each well and fresh media (no stain) was added. Imaging of each well was accomplished using a Perkin Elmer Operetta high-content imaging system. Five fields per well were imaged using a confocal 60× objective with the Fluorescein filter (excitation filter: 460-490 nm; emission filter: 500-550 nm). Images were analyzed using the Perkin Elmer Harmony software to score each intact cell on the basis of texture complexity of the cytoplasm. Full details can be found in: […]. Biomol. Screening, 2015, 20, […]. Compound sample wells were analyzed and normalized (along with the positive controls) against the vehicle (untreated) control to give a percentage reduction of Wolbachia-infected cells. Using the cell number analysis, compounds with a host cell number amounting to less than 50% of the vehicle control were classified as toxic and retested at a reduced compound concentration. Dose-response curves were generated with percentage reduction of Wolbachia-infected cells versus compound concentration, using 5-10 compound serial dilutions. Data were analyzed and compound EC50 is determined using a 4 parameter logistic nonlinear regression model.

The structures appear in SMILES notation. In brackets after ≈: the same amount, converted by molar mass. Some results are limits rather than exact numbers.

Consider `COC(=O)/C=C/[C@]1(C)C[C@@H](OC(=O)COc2ccc3c(c2F)B(O)OC3)[C@]2(C)[C@H](C)CC[C@]3(CCC(=O)[C@H]32)[C@@H](C)[C@@H]1O` [Compound 12, methyl (E)-3-((3aR,4R,5R,7S,8S,9R,9aS,12R)-5-(2-((7-fluoro-1-hydroxy-1,3-dihydrobenzo[c][1,2]oxaborol-6-yl)oxy)acetoxy)-8-hydroxy-4,7,9,12-tetramethyl-3-oxodecahydro-4,9a-propanocyclopenta[8]annulen-7-yl)acrylate], for which the MIC in test [1] and in test [2] was less than 0.25 µg/mL in each case. In addition, the EC50 (as a rule, the concentration needed to bring the measured effect to its halfway point) in test [3] (Wolbachia pipientis) was 81 nM.
Take `C[C@@H]1CC[C@@]23CCC(=O)[C@H]2[C@]1(C)[C@H](OC(=O)COc1ccc2c(c1F)B(O)OC2)C[C@@](C)(/C=C/C(=O)O)[C@@H](O)C3` [Compound 13, (E)-3-((3aR,4R,5R,7S,8S,9aS,12R)-5-(2-((7-fluoro-1-hydroxy-1,3-dihydrobenzo[c][1,2]oxaborol-6-yl)oxy)acetoxy)-8-hydroxy-4,7,12-trimethyl-3-oxodecahydro-4,9a-propanocyclopenta[8]annulen-7-yl)acrylic acid]: the MIC (commonly the least concentration at which growth counts as inhibited) in test [1] is 4 to 32 µg/mL (≈ 7.16 to 57.3 µM); in test [2] it was more than 64 µg/mL. Besides, the EC50 in test [3] (Wolbachia pipientis) was more than 1000 nM.
Take `CC[C@]1(C)C[C@@H](OC(=O)COc2cc(CN)c3c(c2)B(O)OC3)[C@]2(C)[C@H](C)CC[C@]3(CCC(=O)[C@H]32)[C@@H](C)[C@@H]1O` [Compound 20, (3aR,4R,5R,7R,8S,9R,9aS,12R)-7-ethyl-8-hydroxy-4,7,9,12-tetramethyl-3-oxodecahydro-4,9a-propanocyclopenta[8]annulen-5-yl2-((4-(aminomethyl)-1-hydroxy-1,3-dihydrobenzo[c][1,2]oxaborol-6-yl)oxy)acetate]: in test [1], the “MIC Staphylococcus aureus, MRSA (ATCC 33591)” value (“MIC Staphylococcus aureus” below) is given as “A (MIC of ≤0.25 is A)”. The “MIC Streptococcus pneumoniae (ATCC 49619)” value (shortened to “MIC Streptococcus pneumoniae”) in test [2] is on record as “B (0.5-2 is B)”. This molecule yielded an EC50 in test [3] of 101 nM.
For the molecule `CNC[C@H](O)[C@]1(C)C[C@@H](OC(=O)COc2ccc3c(c2F)B(O)OC3)[C@]2(C)[C@H](C)CC[C@]3(CCC(=O)[C@H]32)[C@@H](C)[C@@H]1O` [Compound 28, (3aR,4R,5R,7R,8S,9R,9aS,12R)-8-hydroxy-7-((R)-1-hydroxy-2-(methylamino)ethyl)-4,7,9,12-tetramethyl-3-oxodecahydro-4,9a-propanocyclopenta[8]annulen-5-yl2-((7-fluoro-1-hydroxy-1,3-dihydrobenzo[c][1,2]oxaborol-6-yl)oxy)acetate], the “MIC Staphylococcus aureus” value in test [1] is on record as “D (≥64 is D)”. The “MIC Streptococcus pneumoniae” value in test [2] was “D (≥64 is D)”. The same molecule displayed an EC50 in test [3] of more than 1000 nM.
Turning to `C[C@@H]1CC[C@@]23CCC(=O)[C@H]2[C@]1(C)[C@H](OC(=O)COc1ccc2c(c1F)B(O)OC2)C[C@@](C)(CNS(C)(=O)=O)[C@@H](OS(C)(=O)=O)[C@@H]3C` [Compound 49, (3aR,4R,5R,7S,8S,9R,9aS,12R)-4,7,9,12-tetramethyl-7-(methylsulfonamidomethyl)-8-((methylsulfonyl)oxy)-3-oxodecahydro-4,9a-propanocyclopenta[8]annulen-5-yl2-((7-fluoro-1-hydroxy-1,3-dihydrobenzo[c][1,2]oxaborol-6-yl)oxy)acetate], the “MIC Staphylococcus aureus” value in test [1] is “C (4-32 is C)”. In addition, the “MIC Streptococcus pneumoniae” value in test [2] is on record as “D (≥64 is D)”. Moreover, in test [3], the EC50 is more than 1000 nM.
